Results from patent publication US8785483B2, “Methods for treating COPD” (The Board of Regents of the University of Texas System, priority 2010, dated 2014).

Key:
SPDEF = assay: Western blot of SPDEF in IL-13-treated SAEC monolayer; assay type: cell-based, human; details: airway epithelial monolayer, IL-13 24 and 48 h, immunoblotting
Description: FIGS. 6A-6B. AR inhibition prevents IL-13-induced expression of Mucin and transcription factor SPDEF in airway epithelial cell monolayer. (A) The airway epithelial cell monolayer at ALI was serum starved without or with fidarestat and incubated with IL-13 for 18 h. Total RNA was isolated and subsequently RT-PCR was performed to assess the expression of Muc5AC and SPDEF. The bar diagrams show densitometric analysis of the corresponding blots (n=4). *p<0.001 vs Control; **p<0.001 vs IL-13; (B) The monolayer of ciliated airway cells at ALI was treated with AR inhibitor for 24 h and subsequently incubated with IL-13 for 24 or 48 h. At the end of incubation, cell lysate was prepared and subjected to western blotting using antibodies against Muc5AC, Muc5B, and SPDEF. The membranes were stripped and re-probed with antibodies against GAPDH to show the equal loading of protein. A representative blot is shown (n=4). *p<0.0001 vs Control; **p<0.001 vs IL-13. […] Protein levels were determined using Bradford reagent (Biorad, Hercules, Calif.). […] The blots were then washed, exposed to HRP-conjugated secondary antibodies (1:5,000 dilution) for 1 h, and the antigen-antibody complex was detected by enhanced chemiluminescence (Amersham Pharmacia Biotech, Piscataway, N.J., USA). […]

SAEC = assay: IL-13-induced ROS levels (H2DCF-DA fluorescence); assay type: cell-based, human; details: fidarestat 10 μM overnight, IL-13 25 ng/ml 1 h
Description: FIGS. 3A-3B. Inhibition of AR prevents IL-13-induced reactive oxygen species (ROS) production in SAEC. (A) Approximately 5×10^4 cells were seeded on 2-chambered slides and starved in serum-free basal medium without or with fidarestat overnight. The cells were washed with 1×HBSS and incubated with 10 μM H2DCF-DA at 37° C. for 30 min, washed again and treated with IL-13 (25 ng/ml) for 1 h. The cells were washed with cold 1×HBSS twice and mounted using floursave mounting medium with DAPI. Photomicrographs were acquired using a fluorescence microscope (Nikon). A representative image is shown (n=4); Magnification 400×. (B) Approximately 10,000 SAEC were plated per well in a 96-well plate and serum-starved for 24 h without or with fidarestat. […] At the end of the treatment, cells were washed twice with HBSS and fluorescence was determined at 485 nm excitation and 538 nm emission wavelengths. Relative ROS production is expressed as mean fluorescence intensity (MFI) (arbitrary units). […] The cells on the culture slide were mounted using floursave mounting medium with DAPI after which photomicrographs were acquired using a fluorescence microscope (Nikon). Fluorescence was determined using 485 nm excitation and 538 nm emission wavelengths for cells in 96-well plate and relative ROS production is expressed as mean fluorescence intensity (MFI) (arbitrary units).

## NC(=O)[C@@H]1C[C@]2(NC(=O)NC2=O)c2cc(F)ccc2O1 [fidarestat, (2S,4S)-2-aminoformyl-6-fluoro-spiro[chroman-4,4′-imidazolidine]-2′,5′-dione]
SPDEF
  prevention of IL-13-induced increase in SPDEF protein: ~50%
SAEC
  prevention of IL-13-induced increase in ROS levels: 80%
